Columns and labels:
[1] = molecular target: T1, human CAR ligand-binding domain (LBD) (Homo sapiens, UniProt Q14994); experiment: TR-FRET CAR Coactivator Binding Assay (LanthaScreen); assay type: biochemical
T1 construct: purchased ThermoFisher Scientific PV4836
Description: The assay uses two fluorophores: a terbium-labeled anti-GST antibody interacting with glutathione-S-transferase tagged human CAR ligand-binding domain (LBD) and a fluorescein-labeled PGC1α coactivator peptide. […] Values above 1 represent the agonistic activity on CAR with subsequent CAR-PGC1α interaction.

[2] = Stability in human plasma; assay type: in vitro ADME; details: over 120 minutes
farnesoid X receptor = molecular target: T2, farnesoid X receptor (Homo sapiens, UniProt Q96RI1); experiment: Luciferase reporter assay with GAL4 construct with LBD, farnesoid X receptor; assay type: cell-based; details: 10 μM/L
T2 construct: luciferase reporter assays with a GAL4 constructs with LBD of tested nuclear receptors; expressed in transfected cells

[3] = tested on: CAR+A-EGFP fusion protein; experiment: CAR+A-EGFP translocation into nucleus in COS-1 cells; assay type: cell-based; details: 10 μM/L, 48 h
CAR variant 3 = molecular target: T3, CAR variant 3 (Homo sapiens, UniProt Q14994, DEL233-236); experiment: Luciferase reporter gene assay with CAR variant 3 in HepG2 cells; assay type: cell-based; details: tested at 1 μM; HepG2, 24 h
T3 construct: expressed in transfected cells; host or cells: HepG2
T3 sequence (Q14994 with tags, fused parts or gaps isoform Q14994-8 DEL233-236): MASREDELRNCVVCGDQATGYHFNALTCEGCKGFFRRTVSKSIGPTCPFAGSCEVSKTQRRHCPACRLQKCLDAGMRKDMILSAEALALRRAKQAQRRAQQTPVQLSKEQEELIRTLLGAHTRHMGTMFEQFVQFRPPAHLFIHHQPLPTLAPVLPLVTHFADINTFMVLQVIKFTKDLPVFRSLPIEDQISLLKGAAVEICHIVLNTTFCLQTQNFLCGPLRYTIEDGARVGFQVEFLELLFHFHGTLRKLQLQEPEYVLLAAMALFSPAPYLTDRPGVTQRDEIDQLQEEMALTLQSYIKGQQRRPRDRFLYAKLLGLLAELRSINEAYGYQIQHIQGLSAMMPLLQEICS
T3 sequence (P19793 1-462 partner): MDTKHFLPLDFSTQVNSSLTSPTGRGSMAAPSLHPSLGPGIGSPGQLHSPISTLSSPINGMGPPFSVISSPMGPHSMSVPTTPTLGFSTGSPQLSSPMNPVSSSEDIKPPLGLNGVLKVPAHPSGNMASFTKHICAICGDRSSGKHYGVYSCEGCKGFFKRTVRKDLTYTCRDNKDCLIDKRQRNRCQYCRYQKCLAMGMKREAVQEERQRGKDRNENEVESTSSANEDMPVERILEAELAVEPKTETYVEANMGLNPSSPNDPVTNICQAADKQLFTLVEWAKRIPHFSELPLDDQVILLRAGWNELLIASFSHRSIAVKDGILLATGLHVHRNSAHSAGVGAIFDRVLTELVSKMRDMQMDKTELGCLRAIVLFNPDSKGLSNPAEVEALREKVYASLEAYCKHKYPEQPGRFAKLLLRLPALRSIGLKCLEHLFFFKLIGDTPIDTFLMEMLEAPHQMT
Procedure: (§1) HepG2 cells were then treated with compounds of the invention for 24 h.

HepG2 cells = experiment: Cytotoxicity, cell viability (MTS) in HepG2; assay type: cell-based; details: Homo sapiens, 48-h treatment, no significant effect at 30 μM/L
Procedure: Cell viability in HepG2 and COS-1 cells after a 48 h treatment with test compounds at a concentration from 1 up to 30 μM was determined using the modified formazan-based […] assay. […] Briefly, the cells were treated with the test compounds or vehicle alone (DMSO) for 48 h. At the end of the treatment, 20 μl of MTS reagent was added directly to each culture wells and further cultivated for 1.5 h. Finally, the absorbance of converted formazan was recorded at 490 nm by plate reader (BioTec Synergy 2. Winooski. Vt. USA). Vehicle (DMSO) and TritonX100 (0.9%; v/v) controls of cell viability were set to be 100% and 0%, respectively.

human CYP2D6 = molecular target: T4, human CYP2D6 (Homo sapiens, UniProt P10635); experiment: Commercial CYP450-Glo inhibition assay, CYP2D6; assay type: in vitro ADME
T4 construct: purchased Promega V8891
Procedure: Genetically modified microsomes with human CYP3A4, CYP2C9, CYP2D6 and CYP1A2 enzymes (CYP450-Glo™ CYP3A4 Assay with Luciferin-IPA (Cat. No. V8802), CYP450-Glo™ CYP1A2 with Luciferin-1A2 (Cat. No. V8772), CYP450-Glo™ CYP2C9 Assay with Luciferin-H (Cat. No. V8792, Promega, Madison, Calif.) and P450-Glo™ CYP2D6 Assay Cat. No. V8891, Promega) were used according to manufacturer's procedures. […] Each point was tested in triplicates and experiments have been repeated three times.

human PXR = molecular target: T5, human PXR (Homo sapiens, UniProt O75469); experiment: PXR-responsive luciferase reporter gene assay in HepG2 cells
T5 sequence (O75469 1-434): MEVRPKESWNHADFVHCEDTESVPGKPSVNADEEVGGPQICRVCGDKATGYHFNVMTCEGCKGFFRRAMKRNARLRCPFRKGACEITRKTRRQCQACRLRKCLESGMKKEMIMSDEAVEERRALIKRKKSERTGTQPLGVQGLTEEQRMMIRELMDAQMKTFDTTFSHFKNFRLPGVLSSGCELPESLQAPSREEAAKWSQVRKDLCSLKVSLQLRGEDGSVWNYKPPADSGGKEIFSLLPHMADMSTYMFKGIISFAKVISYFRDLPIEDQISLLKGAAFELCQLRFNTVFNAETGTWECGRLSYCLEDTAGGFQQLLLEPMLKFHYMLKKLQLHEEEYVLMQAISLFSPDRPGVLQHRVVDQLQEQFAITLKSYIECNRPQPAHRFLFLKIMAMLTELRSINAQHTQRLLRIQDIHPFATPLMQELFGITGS
Procedure: as §1

glucocorticoid receptor = molecular target: T6, glucocorticoid receptor (Homo sapiens, UniProt P04150); experiment: Luciferase reporter assay with GAL4 construct with LBD, glucocorticoid receptor; assay type: cell-based; details: 10 μM/L
T6 construct: luciferase reporter assays with a GAL4 constructs with LBD of tested nuclear receptors; expressed in transfected cells

[4] = tested on: primary human hepatocytes; experiment: Viability/cytotoxicity in primary human hepatocytes; assay type: cell-based; details: 48 h treatment
live X receptor β = molecular target: T7, live X receptor β (Homo sapiens, UniProt P55055); experiment: Luciferase reporter assay with GAL4 construct with LBD, live X receptor β; assay type: cell-based; details: 10 μM/L
T7 construct: luciferase reporter assays with a GAL4 constructs with LBD of tested nuclear receptors; expressed in transfected cells

PPARγ = molecular target: T8, PPARγ (Homo sapiens, UniProt P37231); experiment: Luciferase reporter assay with GAL4 construct with LBD, PPARγ; assay type: cell-based; details: 10 μM/L
T8 construct: luciferase reporter assays with a GAL4 constructs with LBD of tested nuclear receptors; expressed in transfected cells
T8 sequence (P37231 238-503 limits assumed): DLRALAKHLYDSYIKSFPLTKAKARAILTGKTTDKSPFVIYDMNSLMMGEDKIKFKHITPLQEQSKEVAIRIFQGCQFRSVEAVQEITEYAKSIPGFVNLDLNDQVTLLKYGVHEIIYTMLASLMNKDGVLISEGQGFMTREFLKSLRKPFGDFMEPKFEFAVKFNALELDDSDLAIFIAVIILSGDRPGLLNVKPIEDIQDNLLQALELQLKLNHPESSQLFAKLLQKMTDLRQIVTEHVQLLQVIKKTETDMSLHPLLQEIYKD

T1 sequence (Q14994 103-348 isoform Q14994-2 limits assumed, other chains not shown): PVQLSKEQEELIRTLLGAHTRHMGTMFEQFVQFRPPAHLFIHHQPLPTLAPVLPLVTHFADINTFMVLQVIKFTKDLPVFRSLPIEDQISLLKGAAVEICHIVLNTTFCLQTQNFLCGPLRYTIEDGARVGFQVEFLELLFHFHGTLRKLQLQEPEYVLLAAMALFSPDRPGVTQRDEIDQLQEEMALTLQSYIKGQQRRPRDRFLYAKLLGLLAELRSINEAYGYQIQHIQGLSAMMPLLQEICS
T4 sequence (P10635 whole entry): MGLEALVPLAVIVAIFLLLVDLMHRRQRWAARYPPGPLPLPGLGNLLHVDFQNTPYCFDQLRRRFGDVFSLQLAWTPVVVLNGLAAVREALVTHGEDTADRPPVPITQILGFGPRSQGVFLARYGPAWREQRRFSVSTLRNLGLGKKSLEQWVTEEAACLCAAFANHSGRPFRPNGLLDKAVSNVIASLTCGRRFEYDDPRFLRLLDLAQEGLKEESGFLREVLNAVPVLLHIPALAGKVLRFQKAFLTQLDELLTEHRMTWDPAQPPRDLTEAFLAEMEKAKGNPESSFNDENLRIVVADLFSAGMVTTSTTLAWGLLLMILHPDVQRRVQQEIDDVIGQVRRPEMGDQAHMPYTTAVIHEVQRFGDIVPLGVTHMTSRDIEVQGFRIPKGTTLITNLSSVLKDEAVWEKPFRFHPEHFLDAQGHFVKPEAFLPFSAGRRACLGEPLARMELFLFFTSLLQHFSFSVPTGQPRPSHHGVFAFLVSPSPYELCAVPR
T2 sequence (Q96RI1 262-486 limits assumed): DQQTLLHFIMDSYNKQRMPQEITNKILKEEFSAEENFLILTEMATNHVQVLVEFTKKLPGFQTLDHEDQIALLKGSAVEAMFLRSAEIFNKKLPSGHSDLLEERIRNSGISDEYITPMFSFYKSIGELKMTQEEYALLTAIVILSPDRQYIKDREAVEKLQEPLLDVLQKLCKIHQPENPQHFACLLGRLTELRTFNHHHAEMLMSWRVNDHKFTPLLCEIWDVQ
T6 sequence (P04150 524-758 limits assumed): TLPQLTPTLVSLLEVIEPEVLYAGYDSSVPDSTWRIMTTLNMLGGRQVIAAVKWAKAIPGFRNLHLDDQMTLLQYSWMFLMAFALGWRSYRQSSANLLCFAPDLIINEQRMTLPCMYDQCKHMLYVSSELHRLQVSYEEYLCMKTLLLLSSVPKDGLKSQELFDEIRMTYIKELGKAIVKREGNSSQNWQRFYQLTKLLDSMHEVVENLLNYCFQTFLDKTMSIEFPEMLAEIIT
T7 sequence (P55055 222-460 limits assumed): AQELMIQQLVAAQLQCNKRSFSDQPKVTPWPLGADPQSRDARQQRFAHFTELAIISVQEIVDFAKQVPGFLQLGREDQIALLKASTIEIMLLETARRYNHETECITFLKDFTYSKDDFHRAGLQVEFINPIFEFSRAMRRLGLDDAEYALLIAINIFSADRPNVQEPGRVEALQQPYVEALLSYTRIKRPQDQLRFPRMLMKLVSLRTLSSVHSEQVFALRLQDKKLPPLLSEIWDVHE

NC(=O)c1cc(Cn2cc(-c3c(-c4ccc(Cl)cc4)nc4cc(F)ccn34)nn2)ccc1Cl [Example 93, 2-Chloro-5-((4-(2-(4-chlorophenyl)-7-fluoroimidazo[1,2-a]pyridin-3-yl)-1H-1,2,3-triazol-1-yl)methyl)benzamide]
EC50 [1]: 71 nM | stability in human plasma [2]: stable | activation of farnesoid X receptor (farnesoid X receptor): do not activate | CAR+A-EGFP fusion protein translocation into nucleus [3]: significantly stimulates | CAR3 % of CITCO (1 μM) activity at 1 μM (CAR variant 3): 83% | IC50 (HepG2 cells): > 30 µM | IC50 (human CYP2D6): > 10 µM | PXR % of RIF activity (10 μM) at 10 μM (human PXR; tested at 10 μM, HepG2, 24 h): No activation | selectivity and specificity for human CAR in comparison with CITCO (FIG. 2) (human PXR; versus PXR): highly selective and specific for human CAR | activation of glucocorticoid receptor (glucocorticoid receptor): do not activate | viability/cytotoxicity in primary human hepatocytes [4]: no effect on viability/cytotoxicity | activation of live X receptor β (live X receptor β): do not activate | activation of PPARγ (PPARγ): do not activate
